21 compounds from PubChem BioAssay AID330 (DTP/NCI, 2004) can be followed below.

Values joined by “and” are separate entries in the source; they are usually repeats but may differ in a detail not shown here. Identical values can stand only once. Toxic doses and inconclusive results are not listed.

The subject of the assay is P388 leukemia ip, CD2F1 mice, survival T/C. As to the kind of experiment: NCI In Vivo Anticancer Drug Screen. Data for tumor model P388 Leukemia (intraperitoneal) in CD2F1 (CDF1) mice. The following applies: endpoint: median survival time, higher = longer survival. The essentials: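 Mice carrying the transplanted tumor received test compound or vehicle. Survival was recorded in each group, and the value is the treated-group measurement divided by that of the vehicle-treated control group.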

The mark [1] stands for this setting: dose: 60.0 mg/kg/injection, schedule: Q01DX005 (ip), vehicle: Klucel (hydroxypropylcellulose) (HPC).
Setting [2] is: dose: 120.0 mg/kg/injection, schedule: Q01DX005 (ip), vehicle: Klucel (hydroxypropylcellulose) (HPC).
The mark [3] stands for this setting: dose: 50.0 mg/kg/injection, schedule: Q01DX005 (ip), vehicle: saline with Tween-80.
The mark [4] stands for this setting: dose: 50.0 mg/kg/injection, schedule: Q01DX005 (ip), vehicle: Klucel (hydroxypropylcellulose) (HPC).
The mark [5] stands for this setting: dose: 100.0 mg/kg/injection, schedule: Q01DX005 (ip), vehicle: Klucel (hydroxypropylcellulose) (HPC).
Where [6] appears, read: dose: 200.0 mg/kg/injection, schedule: Q01DX005 (ip), vehicle: Klucel (hydroxypropylcellulose) (HPC).

Consider `C/C(=C\C=C/c1ccoc1)C(=O)c1cc(C)co1`, for which the T/C by setting is: (dose: 6.25 mg/kg/injection, schedule: Q01DX009 (ip), vehicle: Klucel (hydroxypropylcellulose) (HPC)) 106 % of control; (dose: 12.5 mg/kg/injection, schedule: Q01DX009 (ip), vehicle: Klucel (hydroxypropylcellulose) (HPC)) 103 % of control and 95 % of control; (dose: 25.0 mg/kg/injection, schedule: Q01DX009 (ip), vehicle: Klucel (hydroxypropylcellulose) (HPC)) 106 % of control and 96 % of control; (dose: 50.0 mg/kg/injection, schedule: Q01DX009 (ip), vehicle: Klucel (hydroxypropylcellulose) (HPC)) 115 % of control and 96 % of control; (dose: 100.0 mg/kg/injection, schedule: Q01DX009 (ip), vehicle: Klucel (hydroxypropylcellulose) (HPC)) 104 % of control.
Regarding `COc1ccc2c(-c3ccc(O)cc3)c(-c3ccccc3)c(=O)oc2c1`, the T/C is 86 % of control (dose: 60.0 mg/kg/injection, schedule: Q01DX005 (ip), vehicle: saline with Tween-80); 97 % of control (dose: 120.0 mg/kg/injection, schedule: Q01DX005 (ip), vehicle: saline with Tween-80); 89 % of control (dose: 240.0 mg/kg/injection, schedule: Q01DX005 (ip), vehicle: saline with Tween-80).
Consider `Cc1cc(NCCCCCCNc2cc(C)nc3cc(N(C)C)ccc23)c2ccc(N(C)C)cc2n1`, for which the T/C reads like this: (dose: 1.56 mg/kg/injection, schedule: Q01DX009 (ip), vehicle: distilled water + Tween-80 + alcohol) 110 % of control; (dose: 6.25 mg/kg/injection, schedule: Q01DX009 (ip), vehicle: distilled water + Tween-80 + alcohol) 151 % of control; (dose: 12.5 mg/kg/injection, schedule: Q01DX009 (ip), vehicle: distilled water + Tween-80 + alcohol) 154 % of control and 158 % of control; (dose: 25.0 mg/kg/injection, schedule: Q01DX009 (ip), vehicle: distilled water + Tween-80 + alcohol) 178 % of control and 181 % of control.
Consider `COc1ccc(NS(=O)(=O)c2ccc(NC3OC(CO)C(O)C(O)C3NC(C)=O)cc2)nn1` (centres undefined), for which the T/C is, setting by setting: (dose: 50.0 mg/kg/injection, schedule: Q01DX005 (ip), vehicle: saline) 104 % of control; (dose: 100.0 mg/kg/injection, schedule: Q01DX005 (ip), vehicle: saline) 100 % of control; (dose: 200.0 mg/kg/injection, schedule: Q01DX005 (ip), vehicle: saline) 104 % of control.
In the case of `CCn1c(-c2c(Cl)cc(O)cc2Cl)cc2c(Cl)cc(O)cc21`, the T/C is, setting by setting: under setting [1], 87 % of control; under setting [2], 92 % of control.
As to `CC(=O)OCC1OC(n2c(Br)nc3c(N)ncnc32)C(OC(C)=O)C1OC(C)=O` (centres undefined), the T/C under setting [3] was 103 % of control; the T/C (dose: 100.0 mg/kg/injection, schedule: Q01DX005 (ip), vehicle: saline with Tween-80) was 101 % of control; the T/C (dose: 200.0 mg/kg/injection, schedule: Q01DX005 (ip), vehicle: saline with Tween-80) is 97 % of control.
With `Cc1ccc(N=CNN(C)S(=O)(=O)c2ccc(C)cc2)cc1`, the T/C was 92 % of control under setting [1]; 108 % of control under setting [2]; 90 % of control (dose: 240.0 mg/kg/injection, schedule: Q01DX005 (ip), vehicle: Klucel (hydroxypropylcellulose) (HPC)).
With `C#CCN1CC(OC)Nc2c(O)cccc2C1=O` (centres undefined) (tested in a mixture with another compound), the T/C is, setting by setting: (dose: 2.5 mg/kg/injection, schedule: Q01DX005 (ip), vehicle: water) 113 % of control; (dose: 5.0 mg/kg/injection, schedule: Q01DX005 (ip), vehicle: water) 110 % of control and 113 % of control; (dose: 10.0 mg/kg/injection, schedule: Q01DX005 (ip), vehicle: water) 123 % of control; (dose: 20.0 mg/kg/injection, schedule: Q01DX005 (ip), vehicle: water) 119 % of control and 123 % of control.
In the case of `CC(=O)OCC1OC(n2cnc3c(Cl)nc(Cl)nc32)CC(OC(C)=O)C1OC(C)=O` (centres undefined), the T/C reads like this: under setting [4], 93 % of control; under setting [5], 99 % of control; under setting [6], 91 % of control.
As for `CC1NC(C)N2C(C)N12` (centres undefined), the T/C (dose: 25.0 mg/kg/injection, schedule: Q01DX001 (ip), vehicle: saline) is 105 % of control; the T/C (dose: 50.0 mg/kg/injection, schedule: Q01DX001 (ip), vehicle: saline) was 104 % of control; the T/C (dose: 100.0 mg/kg/injection, schedule: Q01DX001 (ip), vehicle: saline) is 104 % of control.
As for `Cc1cc([N+](=O)[O-])c(Cl)cc1NS(=O)(=O)c1ccccc1`, the T/C is 100 % of control (dose: 50.0 mg/kg/injection, schedule: Q04DX003 (ip), vehicle: saline with Tween-80) and 95 % of control (dose: 100.0 mg/kg/injection, schedule: Q04DX003 (ip), vehicle: saline with Tween-80).
For `CCCCCCOCCOCCCN1C(=O)C2C3C=CC(C3)C2(Cl)C1=O` (centres undefined), the T/C reads like this: (dose: 50.0 mg/kg/injection, schedule: Q01DX005 (ip), vehicle: distilled water + Tween-80 + alcohol) 102 % of control; (dose: 100.0 mg/kg/injection, schedule: Q01DX005 (ip), vehicle: distilled water + Tween-80 + alcohol) 105 % of control; (dose: 200.0 mg/kg/injection, schedule: Q01DX005 (ip), vehicle: distilled water + Tween-80 + alcohol) 100 % of control.
Turning to `CCOC=C1C(=O)N(C)C(=O)N(C)C1=O`, the T/C runs as follows: (dose: 50.0 mg/kg/injection, schedule: Q01DX009 (ip), vehicle: saline with Tween-80) 106 % of control; (dose: 100.0 mg/kg/injection, schedule: Q01DX009 (ip), vehicle: saline with Tween-80) 106 % of control; (dose: 200.0 mg/kg/injection, schedule: Q01DX009 (ip), vehicle: saline with Tween-80) 108 % of control.
For the compound `O=C1c2c3c(c4c(c2C(=O)c2c5c(c6c(c21)CCCC6)CCCC5)CCCC4)CCCC3`, the T/C (dose: 7.5 mg/kg/injection, schedule: Q01DX009 (ip), vehicle: saline with Tween-80) is 99 % of control; the T/C (dose: 15.0 mg/kg/injection, schedule: Q01DX009 (ip), vehicle: saline with Tween-80) is 98 % of control; the T/C (dose: 30.0 mg/kg/injection, schedule: Q01DX009 (ip), vehicle: saline with Tween-80) is 103 % of control.
In the case of `OCC(COCCCCCCCCCCCC1C=CCC1)OCCCCCCCCCCCC1C=CCC1` (centres undefined), the T/C (dose: 100.0 mg/kg/injection, schedule: Q04DX003 (ip), vehicle: saline) was 101 % of control; the T/C (dose: 200.0 mg/kg/injection, schedule: Q04DX003 (ip), vehicle: saline) is 104 % of control; the T/C (dose: 400.0 mg/kg/injection, schedule: Q04DX003 (ip), vehicle: saline) was 104 % of control.
On to `Cc1ccc(S(=O)(=O)NCC(Cl)C#N)cc1` (centres undefined), for which the T/C was 105 % of control under setting [4]; 106 % of control under setting [5]; 103 % of control under setting [6]; 102 % of control (dose: 400.0 mg/kg/injection, schedule: Q01DX005 (ip), vehicle: Klucel (hydroxypropylcellulose) (HPC)).
Regarding `Clc1nnn(-c2ccccc2)n1`, the T/C reads like this: (dose: 62.5 mg/kg/injection, schedule: Q04DX002 (ip), vehicle: saline with Tween-80) 101 % of control; (dose: 125.0 mg/kg/injection, schedule: Q04DX002 (ip), vehicle: saline with Tween-80) 100 % of control.
With `COc1ccc(CSC(=S)Nc2cc(C)c(C)cc2[N+](=O)[O-])cc1`, the T/C was 93 % of control (dose: 50.0 mg/kg/injection, schedule: Q01DX009 (ip), vehicle: suspension in saline); 97 % of control (dose: 100.0 mg/kg/injection, schedule: Q01DX009 (ip), vehicle: suspension in saline); 97 % of control (dose: 200.0 mg/kg/injection, schedule: Q01DX009 (ip), vehicle: suspension in saline).
In the case of `CS(=O)(=O)C#CCCCCCCC#CS(C)(=O)=O`, the T/C runs as follows: (dose: 6.25 mg/kg/injection, schedule: Q04DX002 (ip), vehicle: saline) 104 % of control; (dose: 12.5 mg/kg/injection, schedule: Q04DX002 (ip), vehicle: saline) 97 % of control; (dose: 25.0 mg/kg/injection, schedule: Q04DX002 (ip), vehicle: saline) 102 % of control.
Regarding `CCCCN(CCCC)/C(N)=N/O`, the T/C was 92 % of control (dose: 20.0 mg/kg/injection, schedule: Q01DX009 (ip), vehicle: saline with Tween-80); 100 % of control (dose: 40.0 mg/kg/injection, schedule: Q01DX009 (ip), vehicle: saline with Tween-80); 107 % of control (dose: 80.0 mg/kg/injection, schedule: Q01DX009 (ip), vehicle: saline with Tween-80).
With `CCN(CC)CCOc1ccccc1C(C)=O`, the T/C reads like this: (dose: 25.0 mg/kg/injection, schedule: Q01DX005 (ip), vehicle: saline with Tween-80) 93 % of control; under setting [3], 99 % of control.
